In one data set the target is T1, hCFTR (Homo sapiens, UniProt P13569).
T1 construct: gene CFTR
The conditions noted are these: Sf9 crude membranes, control membranes subtracted; 1 mM Na2ATP, 5 mM MgCl2, PKA, pH 7.4, 30 °C, 1 h.

A further data set addresses T2, Lp-CFTR (Petromyzon marinus, UniProt A0A5Q0TXR8).
T2 construct: lamprey CFTR in pFastBac vector with 6xHis tag; baculovirus/Sf9 crude plasma membranes, not purified; PKA-phosphorylated
T2 sequence (A0A5Q0TXR8 1-1466): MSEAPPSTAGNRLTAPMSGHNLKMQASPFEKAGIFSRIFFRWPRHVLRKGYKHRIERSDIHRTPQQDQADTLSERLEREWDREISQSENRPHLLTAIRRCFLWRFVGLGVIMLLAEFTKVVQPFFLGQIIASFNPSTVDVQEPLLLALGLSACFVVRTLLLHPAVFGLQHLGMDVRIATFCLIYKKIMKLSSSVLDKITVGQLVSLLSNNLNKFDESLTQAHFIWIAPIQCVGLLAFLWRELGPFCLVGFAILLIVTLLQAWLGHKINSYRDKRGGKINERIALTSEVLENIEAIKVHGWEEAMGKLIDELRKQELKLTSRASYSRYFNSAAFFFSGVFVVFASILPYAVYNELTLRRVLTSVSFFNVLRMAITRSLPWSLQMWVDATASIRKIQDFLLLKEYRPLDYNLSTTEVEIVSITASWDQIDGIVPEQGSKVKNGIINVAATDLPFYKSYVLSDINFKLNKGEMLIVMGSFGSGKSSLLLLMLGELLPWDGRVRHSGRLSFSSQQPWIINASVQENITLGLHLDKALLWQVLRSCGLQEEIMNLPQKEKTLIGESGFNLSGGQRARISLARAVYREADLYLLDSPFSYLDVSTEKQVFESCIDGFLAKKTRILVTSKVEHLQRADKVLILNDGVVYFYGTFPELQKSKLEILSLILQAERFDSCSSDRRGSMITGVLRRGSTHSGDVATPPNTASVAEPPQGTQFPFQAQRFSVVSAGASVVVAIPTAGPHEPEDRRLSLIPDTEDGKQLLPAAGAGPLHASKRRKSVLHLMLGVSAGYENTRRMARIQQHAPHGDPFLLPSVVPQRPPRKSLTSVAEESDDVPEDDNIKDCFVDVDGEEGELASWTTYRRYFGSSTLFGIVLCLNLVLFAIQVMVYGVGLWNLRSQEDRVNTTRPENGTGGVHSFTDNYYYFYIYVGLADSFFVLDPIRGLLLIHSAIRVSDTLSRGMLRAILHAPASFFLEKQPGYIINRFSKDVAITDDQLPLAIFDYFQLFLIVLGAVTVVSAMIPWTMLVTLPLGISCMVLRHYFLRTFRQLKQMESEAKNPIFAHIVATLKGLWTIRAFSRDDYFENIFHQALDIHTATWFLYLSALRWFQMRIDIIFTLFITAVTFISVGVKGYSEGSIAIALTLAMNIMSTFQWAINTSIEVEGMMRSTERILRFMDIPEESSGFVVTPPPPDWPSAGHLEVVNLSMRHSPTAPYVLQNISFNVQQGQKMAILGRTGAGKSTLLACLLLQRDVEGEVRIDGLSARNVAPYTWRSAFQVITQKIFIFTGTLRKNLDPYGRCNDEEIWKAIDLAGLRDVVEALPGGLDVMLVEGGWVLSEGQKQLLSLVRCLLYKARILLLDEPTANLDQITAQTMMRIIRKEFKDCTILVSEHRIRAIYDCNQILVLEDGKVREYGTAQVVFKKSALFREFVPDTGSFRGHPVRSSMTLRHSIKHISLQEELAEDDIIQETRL
The data set can be described thus: antimony-phosphomolybdate Pi release (ATPase). In kind it is biochemical. The conditions noted are these: Sf9 crude membranes, control membranes subtracted; 1 mM Na2ATP, 5 mM MgCl2, PKA, pH 7.4, 30 °C, 1 h.

Substrate in data set [1]: Nc1ncnc2c1ncn2[C@@H]1O[C@H](COP(=O)(O)OP(=O)(O)OP(=O)(O)O)[C@@H](O)[C@H]1O
The data set can be described thus: antimony-phosphomolybdate Pi release (ATPase), Michaelis-Menten fit. In kind it is biochemical, Homo sapiens. The following applies: printed as Kd but from Michaelis-Menten fit of ATPase activity, Sf9 crude membranes, control membranes subtracted, 5 mM MgCl2, pH 7.4, 37 °C, 20 min, no PKA, no transport substrate.

T1 sequence (P13569 whole entry): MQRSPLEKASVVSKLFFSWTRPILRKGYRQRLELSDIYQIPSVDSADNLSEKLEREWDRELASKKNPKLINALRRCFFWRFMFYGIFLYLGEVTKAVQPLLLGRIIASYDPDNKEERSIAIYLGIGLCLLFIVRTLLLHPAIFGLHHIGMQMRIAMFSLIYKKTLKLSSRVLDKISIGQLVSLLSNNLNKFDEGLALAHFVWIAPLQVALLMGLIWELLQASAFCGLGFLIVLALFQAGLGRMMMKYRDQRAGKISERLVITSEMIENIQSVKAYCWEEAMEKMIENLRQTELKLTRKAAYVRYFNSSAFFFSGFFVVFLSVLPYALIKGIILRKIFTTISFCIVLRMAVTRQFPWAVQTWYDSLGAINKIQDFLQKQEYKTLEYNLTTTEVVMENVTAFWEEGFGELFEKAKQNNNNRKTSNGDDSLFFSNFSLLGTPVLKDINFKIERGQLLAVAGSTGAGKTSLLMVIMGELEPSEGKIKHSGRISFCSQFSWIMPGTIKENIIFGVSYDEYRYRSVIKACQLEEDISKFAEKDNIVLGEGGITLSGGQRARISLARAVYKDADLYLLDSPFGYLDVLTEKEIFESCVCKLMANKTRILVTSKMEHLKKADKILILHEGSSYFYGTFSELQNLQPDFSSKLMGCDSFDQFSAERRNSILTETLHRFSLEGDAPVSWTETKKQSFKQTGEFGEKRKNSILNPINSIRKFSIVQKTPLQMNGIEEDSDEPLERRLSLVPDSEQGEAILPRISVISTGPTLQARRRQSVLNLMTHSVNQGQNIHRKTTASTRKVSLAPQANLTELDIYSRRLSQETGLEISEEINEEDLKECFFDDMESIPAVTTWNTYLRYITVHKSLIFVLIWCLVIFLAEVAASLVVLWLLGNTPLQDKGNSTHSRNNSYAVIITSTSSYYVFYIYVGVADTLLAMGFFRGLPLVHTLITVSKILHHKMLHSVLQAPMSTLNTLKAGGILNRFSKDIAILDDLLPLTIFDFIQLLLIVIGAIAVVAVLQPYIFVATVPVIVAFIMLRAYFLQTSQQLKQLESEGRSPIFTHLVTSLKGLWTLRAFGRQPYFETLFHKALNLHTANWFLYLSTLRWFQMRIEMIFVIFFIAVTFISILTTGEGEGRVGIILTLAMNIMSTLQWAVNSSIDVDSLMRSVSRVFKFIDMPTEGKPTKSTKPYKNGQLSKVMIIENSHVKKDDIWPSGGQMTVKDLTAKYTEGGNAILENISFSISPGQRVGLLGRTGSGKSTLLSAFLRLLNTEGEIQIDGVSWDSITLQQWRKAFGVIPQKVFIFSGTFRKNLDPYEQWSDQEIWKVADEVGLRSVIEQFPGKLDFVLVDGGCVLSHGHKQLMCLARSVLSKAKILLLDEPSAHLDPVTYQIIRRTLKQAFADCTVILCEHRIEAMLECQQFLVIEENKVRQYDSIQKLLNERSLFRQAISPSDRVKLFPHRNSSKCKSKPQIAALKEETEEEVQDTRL

Take `Nc1ncnc2c1ncn2[C@@H]1O[C@H](COP(=O)(O)OP(=O)(O)OP(=O)(O)O)[C@@H](O)[C@H]1O` [ATP]: the “antimony-phosphomolybdate Pi release (ATPase)” value on hCFTR was “hCFTR exhibited higher ATPase activity in high PKA compared to low PKA conditions”; on Lp-CFTR it was “Lp-CFTR exhibited higher ATPase activity in high PKA compared to low PKA conditions”.

B1: hABCC4 (Homo sapiens) (protein)
chain: MLPVYQEVKPNPLQDANLCSRVFFWWLNPLFKIGHKRRLEEDDMYSVLPEDRSQHLGEELQGFWDKEVLRAENDAQKPSLTRAIIKCYWKSYLVLGIFTLIEESAKVIQPIFLGKIINYFENYDPMDSVALNTAYAYATVLTFCTLILAILHHLYFYHVQCAGMRLRVAMCHMIYRKALRLSNMAMGKTTTGQIVNLLSNDVNKFDQVTVFLHFLWAGPLQAIAVTALLWMEIGISCLAGMAVLIILLPLQSCFGKLFSSLRSKTATFTDARIRTMNEVITGIRIIKMYAWEKSFSNLITNLRKKEISKILRSSCLRGMNLASFFSASKIIVFVTFTTYVLLGSVITASRVFVAVTLYGAVRLTVTLFFPSAIERVSEAIVSIRRIQTFLLLDEISQRNRQLPSDGKKMVHVQDFTAFWDKASETPTLQGLSFTVRPGELLAVVGPVGAGKSSLLSAVLGELAPSHGLVSVHGRIAYVSQQPWVFSGTLRSNILFGKKYEKERYEKVIKACALKKDLQLLEDGDLTVIGDRGTTLSGGQKARVNLARAVYQDADIYLLDDPLSAVDAEVSRHLFELCICQILHEKITILVTHQLQYLKAASQILILKDGKMVQKGTYTEFLKSGIDFGSLLKKDNEESEQPPVPGTPTLRNRTFSESSVWSQQSSRPSLKDGALESQDTENVPVTLSEENRSEGKVGFQAYKNYFRAGAHWIVFIFLILLNTAAQVAYVLQDWWLSYWANKQSMLNVTVNGGGNVTEKLDLNWYLGIYSGLTVATVLFGIARSLLVFYVLVNSSQTLHNKMFESILKAPVLFFDRNPIGRILNRFSKDIGHLDDLLPLTFLDFIQTLLQVVGVVSVAVAVIPWIAIPLVPLGIIFIFLRRYFLETSRDVKRLESTTRSPVFSHLSSSLQGLWTIRAYKAEERCQELFDAHQDLHSEAWFLFLTTSRWFAVRLDAICAMFVIIVAFGSLILAKTLDAGQVGLALSYALTLMGMFQWCVRQSAEVENMMISVERVIEYTDLEKEAPWEYQKRPPPAWPHEGVIIFDNVNFMYSPGGPLVLKHLTALIKSQEKVGIVGRTGAGKSSLISALFRLSEPEGKIWIDKILTTEIGLHDLRKKMSIIPQEPVLFTGTMRKNLDPFNEHTDEELWNALQEVQLKETIEDLPGKMDTELAESGSNFSVGQRQLVCLARAILRKNQILIIDEATANVDPRTDELIQKKIREKFAHCTVLTIAHRLNTIIDSDKIMVLDSGRLKEYDEPYVLLQNKESLFYKMVQQLGKAEAAALTETAKQVYFKRNYPHIGHTDHMVTNTSNGQPSTLTIFETAL
notes: human ABCC4 in pFastBac vector with 6xHis tag; baculovirus/Sf9 crude plasma membranes, not purified
By Km is commonly meant the concentration of substrate that gives half-maximal velocity. B1: the Km in data set [1] is 550 ± 280 µM.

(Values after paper PMC10910009, “Comparing ATPase activity of ATP-binding cassette subfamily C member 4, lamprey CFTR, and human CFTR using an antimony-phosphomolybdate assay” (Frontiers in Pharmacology, 2024).)
